Read-outs that look alike come from different tables or passages of the source.
How the values were obtained:
Assay type in all cases: in vivo, human patients
[1] = system: chronic B hepatitis; details: 30 mg/day
Text: Utility or effectiveness of the organogermanium compound is checked in comparison with that of a placebo as a control. Interferons have widely been accepted as drugs for curing chronic hepatitis, but those are injectionally dosed. On the contrary, the organogermanium compound is orally dosed. In recent years, some oral medicines for curing liver diseases have been developed and the effectiveness thereof has been evaluated by using a placebo as its control. Therefore, the "placebo" is selected as the control for the evaluation of the organogermanium compound in question. (a) To patients with chronic B hepatitis: 30 mg/day/body. Experiment period of time was set for 16 weeks for the patients with chronic B hepatitis and for 12 weeks for the patients with non A and non B hepatitis.

[2] = system: chronic non A non B hepatitis; details: 60 mg/day, 12 weeks
Text: Utility or effectiveness of the organogermanium compound is checked in comparison with that of a placebo as a control. Interferons have widely been accepted as drugs for curing chronic hepatitis, but those are injectionally dosed. On the contrary, the organogermanium compound is orally dosed. In recent years, some oral medicines for curing liver diseases have been developed and the effectiveness thereof has been evaluated by using a placebo as its control. Therefore, the "placebo" is selected as the control for the evaluation of the organogermanium compound in question. (b) To patients with non A non B hepatitis: 60 mg/day/body. Experiment period of time was set for 16 weeks for the patients with chronic B hepatitis and for 12 weeks for the patients with non A and non B hepatitis.

[3] = system: chronic B hepatitis
Experimental: Search on effectiveness of the organogermanium compound to chronic B and non A non B hepatitises and preferable amount of dose thereof.
Therefore, 30 mg, 60 mg and 90 mg/day/body were set. Experimental period of time was set for 12 weeks.
(a) Examination of liver functions (GOT, GPT, A 1-P, and γ-GTP), and
(b) Examination with use of HBV markers (HBe-Ag, HBe-Ab and DNA-P).

For “3-oxygermylpropionic acid [Compound No. 1]”, the A/G change [1] was “.uparw. **”, the GOT change [1] was “.dwnarw. ***” and the “GOT, test versus placebo” value [1] was “+ (S>P)”. For the same substance, the GPT change [1] was “.dwnarw. ***”, the “GPT, test versus placebo” value [1] was “* (S>P)” and the Globulin change [1] was “.dwnarw. ***”. The “Globulin, test versus placebo” value [1] was “+ (S>P)”, the “HBe-AG (log conversion) change” value [1] was “.uparw. ***” and the “HBe-AG (log conversion), test versus placebo” value [1] was “* (S>P)”. The HBe-Ab change [1] was “.uparw. *”, the “HBe-Ab, test versus placebo” value [1] was “* (S>P)” and the Serum albumin change [1] was “.uparw. +”. For the same substance, the TTT change [1] was “.dwnarw. ***”, the Total cholesterol change [1] was “.uparw. *” and the “Total cholesterol, test versus placebo” value [1] was “* (S>P)”. For the same substance, the ZTT change [1] was “.dwnarw. **”, the γ-GPT change [1] was “.dwnarw. **” and the “Improvement (objective)” value ([1]; 16 weeks, placebo 13%) was 10%. The “Improvement (HBe Ag-Ab)” value ([1]; 16 weeks, placebo 25%) was 51%, the “Improvement (sec. judgement)” value ([1]; 16 weeks, placebo 29%) was 54% and the “Improvement (Doc. on duty)” value ([1]; 16 weeks, placebo 31%) was 58%. For the same substance, the “Effectiveness (slight or more)” value ([1]; 16 weeks, placebo 34%) was 63%, the “Improvement (general)” value ([1]; 16 weeks, placebo 39%) was 66% and the “Improvement (self)” value ([1]; 16 weeks, placebo 40%) was 53%. The A/G change [2] was “.uparw. +”, the GOT change [2] was “.dwnarw. ***” and the “GOT, test versus placebo” value [2] was “** (S>P)”. For the same substance, the GPT change [2] was “.dwnarw. ***”, the “GPT, test versus placebo” value [2] was “** (S>P)” and the Serum albumin change [2] was “.dwnarw. **”. The γ-GPT change [2] was “.dwnarw. *”, the “γ-GPT, test versus placebo” value [2] was “* (S>P)” and the “Improvement (objective)” value ([2]; placebo 10%) was 8%. The “Improvement (sec. judgement)” value ([2]; placebo 26%) was 51%, the “Effectiveness (slight or more)” value ([2]; placebo 29%) was 50% and the “Improvement (Jud. by Doc.)” value ([2]; placebo 29%) was 56%. The “Improvement (general)” value ([2]; placebo 32%) was 59%, the “Improvement (self)” value ([2]; placebo 48%) was 50% and the “Effectiveness (slight or more)” value ([3]; 30 mg/day) was 55%. For the same substance, the “General judgement: Improvement (slight or more)” value (“General judgement: Improvement” below) ([3]; 30 mg/day) was 52%, the “HBV markers: Improvement (slight or more)” value (“HBV markers: Improvement” below) ([3]; 30 mg/day) was 36% and the “A 1-P change” value ([3]; 30 mg/day, 12 weeks) was “.dwnarw. *”. For the same substance, the DNA-P change ([3]; 30 mg/day, 12 weeks) was “.dwnarw. +”, the GOT change ([3]; 30 mg/day, 12 weeks) was “.dwnarw. *” and the GPT change ([3]; 30 mg/day, 12 weeks) was “.dwnarw. +”. The HBe-Ab change ([3]; 30 mg/day, 12 weeks) was “.uparw. *”, the “HBe-Ag (log conversion) change” value ([3]; 30 mg/day, 12 weeks) was “.dwnarw. **” and the γ-GTP change ([3]; 30 mg/day, 12 weeks) was “.dwnarw. *”. The “Effectiveness (slight or more)” value ([3]; 60 mg/day) was 47%, the “General judgement: Improvement” value ([3]; 60 mg/day) was 37% and the “HBV markers: Improvement” value ([3]; 60 mg/day) was 27%. For the same substance, the HBe-Ab change ([3]; 60 mg/day, 12 weeks) was “.uparw. +”, the “Effectiveness (slight or more)” value ([3]; 90 mg/day) was 47% and the “General judgement: Improvement” value ([3]; 90 mg/day) was 43%. The “HBV markers: Improvement” value ([3]; 90 mg/day) was 15% and the HBe-Ab change ([3]; 90 mg/day, 12 weeks) was “.uparw. **”.
